The values that follow come from ChEMBL document CHEMBL1201862, “PubChem BioAssay data set” (2004).

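Dose response: 5 concentrations. Exposure: 48 h. Format: 96-well plates. Endpoint: linear interpolation; highest concentration if not reached. Here, GI50 denotes the concentration required for 50% inhibition of growth.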 Active and inactive are the calls of the source. Cut-off read from the data, not from the text of the source: active = GI50 up to about 1.1 µM and inactive = higher. Bounds are passed on as bounds.

Common to all, as to assay: inhibition of tumour cell growth, NCI panel, 48 h
In assay [1] the test system is SK-MEL-5.
The test system of assay [2] is HOP-92.
In assay [3] the test system is SF-295.
The test system of assay [4] is SF-268.
The test system of assay [5] is UACC-62.
Assay [6] relates to NCI/ADR-RES.
Assay [7] relates to OVCAR-3.
Assay [8] relates to HCT-15.
Assay [9] deals with CCRF-CEM.
Assay [10] relates to SNB-19.
The subject of assay [11] is NCI-H226.
Assay [12] relates to HCT-116.
For assay [13], the system named is ACHN.
In assay [14] the test system is SK-MEL-2.
The subject of assay [15] is 786-0.
The test system of assay [16] is IGROV-1.
The subject of assay [17] is RPMI-8226.
Assay [18] relates to U-251.
The test system of assay [19] is HCC 2998.

Take `NCOC(=O)Cc1ccc(Br)cc1`: the GI50 in assay [1], in assay [2], in assay [3], in [4], in assay [5] and in [6] was > 100 µM (inactive) in each case. The GI50 was > 100 µM (inactive) in assay [7]; over 100 µM in assay [8]; 80 µM (inactive) in [9]; > 100 µM (inactive) in assay [10]; > 100 µM (inactive) in assay [11]; > 100 µM (inactive) in assay [12]. The GI50 in assay [13], in assay [14], in assay [15], in assay [16], in [17] and in assay [18] was > 100 µM (inactive) throughout.

Turning to `O=C(CCc1nnc(S)[nH]1)Nc1cccc(C(F)(F)F)c1`, the GI50 in [1], in [2], in assay [3], in assay [4], in assay [5] and in assay [7] was > 100 µM (inactive) throughout. Further, the GI50 in assay [8] was over 100 µM; in [9], > 100 µM (inactive); in assay [10] it was > 100 µM (inactive); in [11], > 100 µM (inactive); in [12], > 100 µM (inactive); in [13] it was > 100 µM (inactive). For the same compound, the GI50 in [14], in assay [15], in [16], in [17], in [19] and in assay [18] was > 100 µM (inactive) throughout.

As to `O=C(O)CCc1cccc2c1oc1c(CCC(=O)O)cccc12`, the GI50 in [1], in assay [2], in assay [3], in [4], in assay [5] and in assay [7] was > 100 µM (inactive) in each case. Besides, the GI50 is over 100 µM in assay [8]; > 100 µM (inactive) in assay [9]; > 100 µM (inactive) in [10]; > 100 µM (inactive) in assay [11]; > 100 µM (inactive) in assay [12]; > 100 µM (inactive) in assay [13]. In addition, the GI50 in assay [14], in assay [15], in assay [16], in assay [17], in assay [19] and in [18] was > 100 µM (inactive) each time.

Turning to `Cn1c(=O)n2c(-c3ccccc3)c(-c3ccccc3)n2c1=O`, the GI50 in [1], in assay [2], in assay [3], in assay [5], in assay [6] and in [7] was > 100 µM (inactive) each time. Also, the GI50 in assay [8] was over 100 µM; in [9], > 100 µM (inactive); in assay [10] it was > 100 µM (inactive); in assay [11] it was > 100 µM (inactive); in [12], > 100 µM (inactive); in [13] it was > 100 µM (inactive). Also, the GI50 in assay [14], in assay [15], in assay [16], in assay [19] and in [18] was > 100 µM (inactive) each time.

In the case of `CC(=O)c1ccc(NC(=O)C(=O)C(C#N)CC(C)(C)C=O)cc1` (stereo not given), the GI50 in assay [1] was > 100 µM (inactive); in assay [2] it was 68.4 µM (inactive); in assay [3], > 100 µM (inactive); in assay [4], > 100 µM (inactive); in [5], > 100 µM (inactive); in assay [7], > 100 µM (inactive). Also, the GI50 is over 100 µM in assay [8]; > 100 µM (inactive) in [9]; > 100 µM (inactive) in assay [10]; > 100 µM (inactive) in assay [11]; > 100 µM (inactive) in [12]; > 100 µM (inactive) in [13]. The GI50 in assay [14], in [15], in [16], in assay [17], in [19] and in assay [18] was > 100 µM (inactive) throughout.

For the compound `O=C1CSC(Cc2nc3ccccc3[nH]2)=N1`, the GI50 in assay [1] was 7.45 µM (inactive); in assay [2] it was 29.9 µM (inactive); in [3], 24.7 µM (inactive); in assay [4], 16.7 µM (inactive); in assay [5], 15.1 µM (inactive); in [7] it was 14.3 µM (inactive). Moreover, the GI50 in [8] is 17.5 µM; in assay [9] it was 6.4 µM (inactive); in [10], 21.1 µM (inactive); in [11], 13.9 µM (inactive); in [12] it was 12.9 µM (inactive); in assay [13], 5.41 µM (inactive). In addition, the GI50 was 16.3 µM (inactive) in assay [14]; 17.1 µM (inactive) in assay [15]; 26.6 µM (inactive) in assay [16]; 13.7 µM (inactive) in assay [17]; 18.3 µM (inactive) in assay [19]; 17.3 µM (inactive) in assay [18].

With `COc1ccc(OC)c2c(C(C)=O)cccc12`, the GI50 in assay [1], in assay [3], in assay [4], in [5], in assay [6] and in [7] was > 100 µM (inactive) throughout. Moreover, the GI50 in assay [8] was over 100 µM; in assay [9], > 100 µM (inactive); in assay [10], > 100 µM (inactive); in assay [11] it was 46.2 µM (inactive); in [12], > 100 µM (inactive); in assay [13], > 100 µM (inactive). The GI50 in assay [15], in assay [16], in [17], in assay [19] and in assay [18] was > 100 µM (inactive) each time.

As to `CC1CN=C(N(C)C(=O)Nc2ccc(Cl)cc2)S1` (stereo not given), the GI50 in assay [1] is 9.04 µM (inactive); in assay [2], 29.9 µM (inactive); in [3], 5.14 µM (inactive); in assay [4] it was 41.5 µM (inactive); in [6] it was 1.9 µM (inactive); in [7] it was 27.2 µM (inactive). The GI50 in [8] is 0.841 µM; in assay [9], > 10 µM (inactive); in assay [10], 49 µM (inactive); in [12], 4.89 µM (inactive); in [13], 1.3 µM (inactive); in assay [14] it was 15.4 µM (inactive). For the same compound, the GI50 in assay [15] was 19.5 µM (inactive); in assay [16], 4.56 µM (inactive); in [17] it was > 10 µM (inactive); in [19], 4.29 µM (inactive); in [18], 13.3 µM (inactive).

Turning to `COP(=O)(Cc1ccccc1)Cc1ccccc1`, the GI50 in assay [1] is > 100 µM (inactive); in assay [3], > 100 µM (inactive); in [4], > 100 µM (inactive); in assay [5], > 100 µM (inactive); in assay [6] it was > 100 µM (inactive); in [8] it was over 100 µM. Besides, the GI50 in assay [9] was > 100 µM (inactive); in [10] it was > 10 µM (inactive); in assay [11], > 100 µM (inactive); in assay [12], > 100 µM (inactive); in assay [13], > 100 µM (inactive); in assay [14], > 100 µM (inactive). Besides, the GI50 in assay [15], in assay [16], in assay [17], in assay [19] and in [18] was > 100 µM (inactive) throughout.

For the compound `C=C1CC(OC)(C(O)C(=O)N[C@H]2OCO[C@H]3C2O[C@H](C[C@H](O)COC)C(C)(C)C3OC)O[C@H](C)[C@@H]1C` (stereo not given in full), the GI50 in [1], in assay [3], in assay [4], in [5], in [6] and in assay [7] was < 0.00773 µM (active) throughout. Moreover, the GI50 in assay [8] was under 0.00773 µM; in [9] it was < 0.00773 µM (active); in [10], < 0.00773 µM (active); in [11] it was < 0.00773 µM (active); in assay [12], < 0.00773 µM (active); in assay [16], < 0.00773 µM (active). The GI50 in [17], in assay [19] and in assay [18] was < 0.00773 µM (active) in each case.

`CSCC[C@@H](NC(=O)[C@H](CC(C)C)NC(=O)C(Cc1cnc[nH]1)NC(=O)CNC(=O)[C@@H](NC(=O)[C@H](C)NC(=O)[C@H](Cc1c[nH]c2ccccc12)NC(=O)[C@H](CCC(N)=O)NC(=O)[C@@H](N)CC(N)=O)C(C)C)C(N)=O` (stereo not given in full): the GI50 in assay [1], in assay [2], in [3], in [4], in [5] and in [6] was > 100 µM (inactive) in each case. For the same compound, the GI50 is > 100 µM (inactive) in [7]; over 100 µM in assay [8]; > 100 µM (inactive) in [9]; > 100 µM (inactive) in assay [10]; > 100 µM (inactive) in assay [11]; > 100 µM (inactive) in assay [12]. Also, the GI50 in [14], in assay [16], in assay [17], in assay [19] and in assay [18] was > 100 µM (inactive) each time.
